Data as given in patent US12691086B2, “Methods of treating systemic sclerosis and idiopathic pulmonary fibrosis” (HORIZON THERAPEUTICS IRELAND DAC, priority 2022, dated 2026).
“Also recorded” adds a separate entry of the source. Like-named read-outs stand apart in the source and are kept apart here.

Columns and labels:
[1] = tested on: bleomycin-induced skin fibrosis; test: Bleomycin-induced skin fibrosis model, therapeutic protocol; format: in vivo, mouse; settings: 50 mg/kg/day
Description: (§1) Two models of skin fibrosis were used to evaluate the effect of Compound I in comparison with imatinib mesylate, used as a reference.

tight skin (Tsk-1) mice = test: Tight skin (Tsk-1) mice model of skin fibrosis; format: in vivo, mouse; settings: 30 mg/kg/day
Description: as §1

renal failure = test: Models of hypertension-induced or nephrotoxicity-induced renal failure; settings: in vivo
Description: (§2) All these pathological events can be observed in SSc patients at different levels and further support the use of Compound I in these patients.

thrombosis = test: Acute models of coagulation and arterial thrombosis (two models in rats); format: in vivo
Description: as §2

[2] = tested on: patients with early dcSSc; test: 8-week double-blind, placebo-controlled study with 16-week open-label extension in dcSSc; format: in vivo, human
Description: The primary end point was safety during the double-blind phase of the trial. Exploratory end points included the identification of an LPA-induced gene signature in patients' skin.
Seventeen of 32 patients were randomly assigned to receive placebo and 15 to receive Compound I. Thirty patients participated in the open-label extension study. […] At week 8, the reduction in MRSS was numerically greater in the Compound I group than in the placebo group (mean±SD change −3.57±4.18 versus −2.76±4.85; treatment effect −1.2 [95% confidence interval −4.37, 2.02]).

[3] = Single-dose PK under fasted conditions in healthy adult subjects; format: in vivo, human; settings: for AUC(0-inf) / AUC(0-t) / Cmax / Tmax / half-life: human, plasma, oral
Method: The PK of Compound I and food effect were evaluated in an open-label study in healthy volunteers to inform the dose and dosing condition of the tablet formulations used in the clinical studies. Dose proportionality and food effect were evaluated using a 2-way, 2-period crossover design in two cohorts:150 mg and 300 mg single dose under fasting condition in Cohort 1 and 450 mg single dose under fasting and high-fat, high calorie meal condition in Cohort 2. Multiple-dose PK was evaluated using a 2-period, fixed sequence crossover design. Subjects received Compound I twice a day (BID) of 300 mg (Cohort 3) or 450 mg (Cohort 4) administered with low-fat meals in Period 1 and with high-fat meals in Period 2.
PK sample collections: For cohort 1 and 2, blood samples were collected at predose, 0.5, 1, 2, 3, 4, 6, 8, 12, 24, 36, 48, 72, 96 and 120 h post dose. For cohort 3 and 4, blood samples were collected at predose, 0.5, 1, 2, 4, 5, 12 hrs after the first dose on Day 1. After the last dose on Day 5, PK samples were taken at predose, 0.5, 1, 2, 4, 6, 12, 24, 36, 60, 84, 108 hr in Period 1 and predose, 0.5, 1, 2, 4, 6, 12 hours post last dose in Period 2.
Plasma concentrations of Compound I were determined using a validated high performance liquid chromatography-tandem mass spectrometry (HPLC MS/MS) method. The analytical range of Compound I were 250-50,000 ng/mL (high range) and […] (low range). Dose-proportionality of pharmacokinetic parameters were examined by analysis of variance (ANOVA) where the AUC0-last, AUC0-inf, and Cmax parameters were dose normalized. 90% confidence intervals (CIs) were derived by exponentiation of the CIs obtained for the difference between the treatment LSMs (Least square means). Dose proportionality was established if the 90% CI for the ratio of the geometric means for the dose-normalized parameters lay within the limits of (0.7, 1.43).

[4] = target: T1, organic anion transporter 1 (OAT1) (Homo sapiens, UniProt Q4U2R8); test: In vitro inhibition of organic anion transporter 1; format: in vitro ADME
T1 sequence (Q4U2R8 1-563): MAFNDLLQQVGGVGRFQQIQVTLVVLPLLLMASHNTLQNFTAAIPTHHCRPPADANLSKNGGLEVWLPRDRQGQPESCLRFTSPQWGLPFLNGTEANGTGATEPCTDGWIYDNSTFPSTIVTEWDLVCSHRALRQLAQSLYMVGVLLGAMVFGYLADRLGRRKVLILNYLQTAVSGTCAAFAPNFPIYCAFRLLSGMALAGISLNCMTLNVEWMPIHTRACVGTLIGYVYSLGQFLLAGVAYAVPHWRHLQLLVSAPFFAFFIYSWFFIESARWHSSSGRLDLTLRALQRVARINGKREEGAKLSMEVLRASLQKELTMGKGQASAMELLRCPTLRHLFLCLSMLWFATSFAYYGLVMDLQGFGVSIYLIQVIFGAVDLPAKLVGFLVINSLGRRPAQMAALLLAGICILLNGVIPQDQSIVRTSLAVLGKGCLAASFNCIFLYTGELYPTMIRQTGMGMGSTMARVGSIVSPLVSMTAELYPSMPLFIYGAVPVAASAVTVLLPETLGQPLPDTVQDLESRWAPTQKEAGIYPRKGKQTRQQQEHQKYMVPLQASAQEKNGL

[5] = target: lysophosphatidic acid receptor 1 (LPAR1) (Homo sapiens, UniProt Q92633); test: LPAR1 antagonism
[6] = tested on: patients with early dcSSc; settings: Allanore et al. 2018, cited from earlier work
skin fibrosis = settings: mouse, in vivo; cited from earlier work
[7] = therapeutic protocol, mouse skin
[8] = 24-weeks of continuous treatment
[9] = Subjects switched from placebo to Compound I, 16-week open label extension

Sequence of lysophosphatidic acid receptor 1 (LPAR1) (Q92633 whole entry): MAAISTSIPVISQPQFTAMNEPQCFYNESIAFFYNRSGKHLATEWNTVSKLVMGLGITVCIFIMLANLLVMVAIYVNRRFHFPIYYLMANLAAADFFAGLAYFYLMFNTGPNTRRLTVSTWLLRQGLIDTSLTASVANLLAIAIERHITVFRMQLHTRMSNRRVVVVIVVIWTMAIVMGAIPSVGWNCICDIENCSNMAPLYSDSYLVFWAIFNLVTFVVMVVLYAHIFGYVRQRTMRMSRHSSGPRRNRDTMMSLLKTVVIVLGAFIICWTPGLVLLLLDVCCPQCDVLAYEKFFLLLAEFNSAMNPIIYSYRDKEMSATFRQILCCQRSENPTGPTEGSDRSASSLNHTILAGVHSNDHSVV

For COc1ccc(C(=O)NC2(C(=O)O)Cc3ccccc3C2)cc1OCCc1cccc(C)c1 [Compound I, 2-(4-methoxy-3-(3-methylphenethoxy)benzamido)-2,3-dihydro-1H-indene-2-carboxylic acid], the “effect on these markers versus imatinib reference” value [1] was “comparable with the effects of imatinib”, the collagen content [1, 7] was “able to reverse” and the dermal thickness [1, 7] was “able to reverse”. For the same compound, the myofibroblast differentiation [1, 7] was “able to reverse”, the “progression of skin fibrosis” value (tight skin (Tsk-1) mice) was “inhibit the progression of skin fibrosis at a similar level than imatinib” and the kidney function (renal failure) was “improved kidney function”. For the same compound, the antithrombotic activity (thrombosis) was “moderate but significant antithrombotic activity; also recorded: demonstrated antithrombotic activity”, the “Median Decrease in mRSS” value [2, 8] was −7.5 and the “Responder Rate” value [2, 8] was 78.6%. For the same compound, the “Median Decrease in mRSS” value [2, 9] was −7.0, the “Responder Rate” value [2, 9] was 69.2% and the “most frequent adverse events” value ([2]; blinded phase) was “headache, diarrhea, nausea, and falling”. The “MRSS during the study” value ([2]; in vivo) was “improved during the study although the difference was not significant”, the “disease biomarkers (COMP and TSP1)” value ([2]; initial Compound I group, treatment up to 24 weeks) was “numerical improvement versus baseline” and the “LPA-related genes, biomarker analysis of skin biopsies” value ([2]; open label extension) was “reductions in LPA-related genes”. The safety profile ([2]; open-label extension) was “acceptable”, the tolerability ([2]; patients with dcSSc) was “well tolerated” and the “reduction of LPA-related genes in skin samples versus placebo group” value ([2]; week 8) was “greater reduction”. For the same compound, the “treatment effect on MRSS versus placebo” value ([2]; week 8) was −1.2, the “change in MRSS, mean±SD” value ([2]; week 8, double-blind phase) was −3.57±4.18 and the “HAQ-DI (functional disability)” value ([2]; week 24) was “clinically significant improvement”. The “dose proportionality of Cmax and AUC” value ([3]; 150 to 450 mg, ANOVA) was “less than dose-proportional”, the AUC(0-inf) ([3]; 150 mg single dose) was 85.2 µg·h/mL and the AUC(0-t) ([3]; 150 mg single dose) was 83.8 µg·h/mL. It also gave a Cmax ([3]; 150 mg single dose) of 11100 ng/mL, a Tmax ([3]; 150 mg single dose) of 3.5 h and a half-life ([3]; 150 mg single dose) of 21.8 h. For the same compound, the AUC(0-inf) ([3]; 300 mg single dose) was 120 µg·h/mL, the AUC(0-t) ([3]; 300 mg single dose) was 118 µg·h/mL and the Cmax ([3]; 300 mg single dose) was 14500 ng/mL. It also gave a Tmax ([3]; 300 mg single dose) of 4 h, a half-life ([3]; 300 mg single dose) of 22.4 h and an AUC(0-inf) ([3]; 450 mg single dose) of 126 µg·h/mL. The AUC(0-t) ([3]; 450 mg single dose) was 125 µg·h/mL, the Cmax ([3]; 450 mg single dose) was 15200 ng/mL and the Tmax ([3]; 450 mg single dose) was 3 h. The half-life ([3]; 450 mg single dose) was 18.3 h, the “inhibition of OAT1” value [4] was “inhibitor” and the LPAR1 antagonist activity [5] was “potent and selective antagonist”. For the same compound, the “most frequent treatment-emergent adverse events (TEAEs)” value ([6]; 8-week double-blind period) was “headache, diarrhea, nausea and fall”, the tolerability ([6]; about 300 mg BID up to 24 weeks) was “well tolerated” and the “clinical outcome measures (mRSS, HAQ-DI, SHAQ components, disease severity VAS, pruritus VAS)” value ([6]; about 300 mg BID) was “improved outcome measures; also recorded: numerical improvement”. For the same compound, the target engagement [6] was “demonstrated target engagement”, the collagen content (skin fibrosis) was “reduced” and the dermal thickening (skin fibrosis) was “reversed”. For the same compound, the myofibroblast differentiation (skin fibrosis) was “significantly inhibited”.
